The subject of the assay is E16.5 cortical neurons. Briefly: Protection of cortical neurons from axonal degeneration induced by aPKC PS. To be noted: 10 μM taxol 2 h prior to and during 2 h treatment of 7 μM aPKC PS. The assay is classed as cell-based, mouse. How it is done: Cerebral cortical cell culture—E16.5 mouse pregnant females were sacrificed by CO2 asphyxia and cervical dislocation. Embryos were removed from uterine horns. Skin, skull, and meninges were removed from embryo heads. The cortex was dissected in L-15 medium (Sigma), digested with 0.025% trypsin/0.221 mM EDTA (Mediatech) for 20 min followed by incubation in 5% horse serum prepared in L-15 medium for 5 min to inhibit trypsin. […]
Image acquisition and analysis—All images were acquired on an inverted Zeiss LSM510 confocal microscope with LSM acquisition software (Carl Zeiss Microscopy). For quantification of P-PKCζ T410 immunoreactivity in cell cultures, exposure time was adjusted to be under the saturation level for the highest immunofluorescence signal and was conserved between the different samples. Mean immunofluorescence intensity level in neuronal cell bodies was measured using FiJi-ImageJ software (NIH). All quantifications were performed on 10 non-overlapping fields in cell cultures from at least three independent experiments and on four non-consecutive sections from at least three animals for in vivo experiments. […]

“Also recorded” adds a separate entry of the source.

`CC(=O)O[C@H]1C(=O)[C@@]2(C)[C@H]([C@H](OC(=O)c3ccccc3)[C@]3(O)C[C@H](OC(=O)[C@H](O)[C@@H](NC(=O)c4ccccc4)c4ccccc4)C(C)=C1C3(C)C)[C@]1(OC(C)=O)CO[C@@H]1C[C@@H]2O` [taxol, reference compound]: the “axon degeneration induced by aPKC inhibition” value was “reduced; also recorded: partially prevented”.
